Key:
Type in all cases: in vivo, C57BL6J mice
[1] = tested on: p16, MMP3, IL6; assay: p16, MMP3, IL6 mRNA qRT-PCR in groin fat of obese mice given senescent cells killed by test compounds (Example 16, Table 72); settings: obese mice administered senescent cells whose death was induced by the test compound
Summary of the method: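 Mouse groin-fat preadipocytes made senescent with 250 nM doxorubicin for 24 h plus 21 days, killed by test compounds, and given subcutaneously (5×10^5 cells) to female C57BL6J mice. Senescent preadipocytes then given i.p., followed by 8-week high-fat diet. Groin-fat p16, MMP3 and IL6 mRNA measured by qRT-PCR as % of mice without killed-cell administration.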

[2] = frailty tests (open field, wire hanging, grip strength, muscle mass) in naturally aged mice (Example 7-7)
Description: After 22-month-old female C57BL6J mice (purchased from KRIBB Laboratory Animal Resource Center) were adapted to the experimental environment for one week, the aged mice were randomized into an experimental group and a control group. 8-week-old mice that were not aged were used as controls. LX-112 was mixed with 0.5% CMC-Na solution (purchased from Sigma) and administered orally at a concentration of 70 mg/kg daily for 21 days. The control group was administered only the solution in the same volume. After drug administration was completed, the method described in each Example below was performed.
To analyze aging-related senescence in mice, activity evaluation (open field test), endurance evaluation (wire hanging test), and muscle strength and grip strength test (grip strength test) were performed. Specifically, in the open field test, the mouse was placed in a white square box and the trajectory it moved for a certain period of time was measured. The measurement results were compared by analyzing the ratio of time spent in the central area to the total time. In the wire hanging test, the time the mouse could endure hanging on a wire was measured. In the muscle strength and grip test (grip strength test), the mouse was made to hold the grip strength measuring device (purchased from Jeongdo B&P) with its front paws by holding its tail, then pulled slightly until it missed, and the force applied to the measuring device just before missing was measured. […] Table 33 calculates the amount of each evaluation after induced aging as 100% and compares it with the amount of each evaluation after treatment with LX-112.

[3] = tested on: lipofuscin; assay: lipofuscin staining of muscle of doxorubicin-aged mice (Example 8-4); settings: stained area; doxorubicin-aged mice, LX-112 70 mg/kg oral daily 21 days
Description: (§1) After adapting 8-week-old male C57BL6J mice (purchased from KRIBB Laboratory Animal Resource Center) to the experimental environment for 1 week, doxorubicin, an anticancer drug, was administered intraperitoneally at a concentration of 10 mg/kg, and mice that were induced to age for more than 10 days were assigned to an experimental group and a control group. LX-112 was mixed with 0.5% CMC-Na solution (purchased from Sigma) and administered orally at a concentration of 70 mg/kg daily for 21 days. The control group was administered only the solution in the same volume. After drug administration was completed, the method described in each Example below was performed.
Mice were sacrificed in the same manner as in Example 7-4, and tissue sections were prepared from muscle tissue. Lipofuscin, an aging-related degenerative marker was stained.

[4] = tested on: AST, ALT; assay: serum AST and ALT in doxorubicin-aged mice (Example 8-8); settings: doxorubicin-aged mice, LX-112 70 mg/kg oral daily 21 days, DOX without LX = 100%
Description: as §1
In the same manner as in Example 7-5, the amounts of AST (aspartate aminotransferase) and ALT (alanine transaminase) released into the blood during liver damage were measured by spectrophotometry in the serum collected from mice using a kit (purchased from Sigma) according to the method described in the manual. […] Table 50 calculates the amount of each factor after aging was induced by treatment with the anticancer drug as 100% and compared it with the amount of each factor after treatment with LX-112.

[5] = LX-112 70 mg/kg oral daily 21 days, aged untreated = 100%

COC(=O)c1ccc([C@H]2c3[nH]c4ccccc4c3C[C@H](C(=O)OC)N2C(=O)CCl)cc1 [LX-405]
IL6 mRNA (%) [1]: 68.7 (±9.1) % | MMP3 mRNA (%) [1]: 80.5 (±2.8) % | p16 mRNA (%) [1]: 72.4 (±3.9) %

O=c1c2ccccc2[se]n1CCn1[se]c2ccccc2c1=O [LX-112, 1,2-[bis(1,2-benzisoselenazolone-3(2H)-ketone)]ethane]
weight of overall fat tissue ([2]; LX-112): increased | Grip Sterenght Test Strength (%) [2, 5]: 132 (±11) % | Open Field Test Time in Center (%) [2, 5]: 121 (±9) % | Wire Hanging Test Time (%) [2, 5]: 119 (±10) % | Muscle Mass (g) ([2]; quadriceps and gastrocnemius, LX-112 70 mg/kg oral daily 21 days): 0.7 (±0.1) g | Lipofuscin (%) Muscle [3]: 77.1 (±8) % | ALT (%) [4]: 72.2 (±14.1) % | AST (%) [4]: 78 (±17.3) %
